Reference: US9937235B2, “Lipidated peptides as anti-obesity agents” (USTAV ORGANICKE CHEMIE A BIOCHEMIE AKADEMIE VED CR, V.V.I, priority 2012, dated 2018)
Where a SMILES comes first, the peptide text is derived from it. [ ]: non-standard residue; d: D form. The star is where a group is joined. Phe(3,4-Cl2) = N[C@@H](Cc1ccc(Cl)c(Cl)c1)C(=O)O; 1Nal = N[C@@H](Cc1cccc2ccccc12)C(=O)O; Stearoyl = CCCCCCCCCCCCCCCCCC(=O)*; Palmitoyl = CCCCCCCCCCCCCCCC(=O)*; Myristoyl = CCCCCCCCCCCCCC(=O)*; Lauroyl = CCCCCCCCCCCC(=O)*; Decanoyl = CCCCCCCCCC(=O)*; Nle = CCCC[C@H](N)C(=O)O; Octanoyl = CCCCCCCC(=O)*

System: fasted C57BL/6 mice
Assay: Food intake in fasted mice after SC administration
Format: in vivo, mouse
Conditions: fasted C57BL/6 mice, 5 mg/kg SC, 45 min
Procedure: Male C57BL/6 mice (An Lab, Prague 4) were bred in the accredited animal facility in the Institute of Organic Chemistry and Biochemistry, Czech Academy of Sciences, Prague, at the Institute of Molecular Genetics, Prague 4, at the temperature of 22±2° C. with access to food and water ad libitum. The day/night cycle was 12/12 hours (light turned on at 6:00 am). Animals were treated according to the Animal Protection Act (Act No. 246/1992). The males were fed standard chow diet St-1 (Mlýn Kocanda, Praha, Czech Republic) which contained 66% saccharides, 25% proteins and 9% lipids with a caloric value of 3.4 kcal/g.
The food was withdrawn 17 hours prior to injection of lipidated peptide and free access to water was maintained. The administration of saline, PrRP or lipidated analogs was performed either by SC injection at doses of 1-10 mg/kg (volume 0.2 ml/mouse), or by ICV using infusion pump (cannulae were inserted into the third brain ventricle 4 days before the experiment following the procedure of Maixnerová et al. (Maixnerová et al., 2011)). The single dose of peptide was 4 nmol/mouse (5 μl/mouse).
Fifteen minutes after the lipidated peptide administration, the mice were given pre-weighed food. The food was then weighed every 30 minutes for 5-10 hours. The administration of every dose was performed at least twice and one group of mice consisted of at least 6 mice. The results were presented as % of food intake as compared with the control group injected with saline.
Statistical evaluation was performed using program Graph-Pad Prism Software (San Diego, Calif., USA), and the one-way ANOVA with a subsequent Dunnettovým post-hoc test. The difference in food intake between mice injected with saline and mice injected with the examined peptide were considered statistically significant at P<0.05.

Row | SMILES | Food intake in mice (5 mg/kg SC) % saline-treated group (45 min) [%]
1 | CCCCCCCC(=O)N[C@@H](CO)C(=O)N[C@@H](CCCNC(=N)N)C(=O)N[C@@H](C)C(=O)N[C@@H](Cc1c[nH]cn1)C(=O)N[C@@H](CCC(N)=O)C(=O)N[C@@H](Cc1c[nH]cn1)C(=O)N[C@@H](CO)C(=O)N[C@@H](CCCC)C(=O)N[C@@H](CCC(=O)O)C(=O)N[C@H](C(=O)N[C@@H](CCCNC(=N)N)C(=O)N[C@H](C(=O)N1CCC[C@H]1C(=O)N[C@@H](CC(=O)O)C(=O)N[C@H](C(=O)N[C@@H](CC(N)=O)C(=O)N1CCC[C@H]1C(=O)N[C@@H](C)C(=O)N[C@@H](Cc1c[nH]c2ccccc12)C(=O)N[C@@H](Cc1ccc(O)cc1)C(=O)N[C@H](C(=O)NCC(=O)N[C@@H](CCCNC(=N)N)C(=O)NCC(=O)N[C@H](C(=O)N[C@@H](CCCNC(=N)N)C(=O)N1CCC[C@H]1C(=O)N[C@H](C(=O)NCC(=O)N[C@@H](CCCNC(=N)N)C(=O)N[C@@H](Cc1ccccc1)C(N)=O)C(C)C)[C@@H](C)CC)[C@@H](C)O)[C@@H](C)CC)[C@@H](C)O)[C@@H](C)O [Analog 15] (Octanoyl-SRAHQHS[Nle]ETRTPDINPAWYTGRGIRPVGRF-NH2) | 94
2 | CCCCCCCCCC(=O)N[C@@H](CO)C(=O)N[C@@H](CCCNC(=N)N)C(=O)N[C@@H](C)C(=O)N[C@@H](Cc1c[nH]cn1)C(=O)N[C@@H](CCC(N)=O)C(=O)N[C@@H](Cc1c[nH]cn1)C(=O)N[C@@H](CO)C(=O)N[C@@H](CCCC)C(=O)N[C@@H](CCC(=O)O)C(=O)N[C@H](C(=O)N[C@@H](CCCNC(=N)N)C(=O)N[C@H](C(=O)N1CCC[C@H]1C(=O)N[C@@H](CC(=O)O)C(=O)N[C@H](C(=O)N[C@@H](CC(N)=O)C(=O)N1CCC[C@H]1C(=O)N[C@@H](C)C(=O)N[C@@H](Cc1c[nH]c2ccccc12)C(=O)N[C@@H](Cc1ccc(O)cc1)C(=O)N[C@H](C(=O)NCC(=O)N[C@@H](CCCNC(=N)N)C(=O)NCC(=O)N[C@H](C(=O)N[C@@H](CCCNC(=N)N)C(=O)N1CCC[C@H]1C(=O)N[C@H](C(=O)NCC(=O)N[C@@H](CCCNC(=N)N)C(=O)N[C@@H](Cc1ccccc1)C(N)=O)C(C)C)[C@@H](C)CC)[C@@H](C)O)[C@@H](C)CC)[C@@H](C)O)[C@@H](C)O [Analog 16] (Decanoyl-SRAHQHS[Nle]ETRTPDINPAWYTGRGIRPVGRF-NH2) | 57
3 | CCCCCCCCCCCC(=O)N[C@@H](CO)C(=O)N[C@@H](CCCNC(=N)N)C(=O)N[C@@H](C)C(=O)N[C@@H](Cc1c[nH]cn1)C(=O)N[C@@H](CCC(N)=O)C(=O)N[C@@H](Cc1c[nH]cn1)C(=O)N[C@@H](CO)C(=O)N[C@@H](CCCC)C(=O)N[C@@H](CCC(=O)O)C(=O)N[C@H](C(=O)N[C@@H](CCCNC(=N)N)C(=O)N[C@H](C(=O)N1CCC[C@H]1C(=O)N[C@@H](CC(=O)O)C(=O)N[C@H](C(=O)N[C@@H](CC(N)=O)C(=O)N1CCC[C@H]1C(=O)N[C@@H](C)C(=O)N[C@@H](Cc1c[nH]c2ccccc12)C(=O)N[C@@H](Cc1ccc(O)cc1)C(=O)N[C@H](C(=O)NCC(=O)N[C@@H](CCCNC(=N)N)C(=O)NCC(=O)N[C@H](C(=O)N[C@@H](CCCNC(=N)N)C(=O)N1CCC[C@H]1C(=O)N[C@H](C(=O)NCC(=O)N[C@@H](CCCNC(=N)N)C(=O)N[C@@H](Cc1ccccc1)C(N)=O)C(C)C)[C@@H](C)CC)[C@@H](C)O)[C@@H](C)CC)[C@@H](C)O)[C@@H](C)O [Analog 17] (Lauroyl-SRAHQHS[Nle]ETRTPDINPAWYTGRGIRPVGRF-NH2) | 22
4 | CCCCCCCCCCCCCC(=O)N[C@@H](CO)C(=O)N[C@@H](CCCNC(=N)N)C(=O)N[C@@H](C)C(=O)N[C@@H](Cc1c[nH]cn1)C(=O)N[C@@H](CCC(N)=O)C(=O)N[C@@H](Cc1c[nH]cn1)C(=O)N[C@@H](CO)C(=O)N[C@@H](CCCC)C(=O)N[C@@H](CCC(=O)O)C(=O)N[C@H](C(=O)N[C@@H](CCCNC(=N)N)C(=O)N[C@H](C(=O)N1CCC[C@H]1C(=O)N[C@@H](CC(=O)O)C(=O)N[C@H](C(=O)N[C@@H](CC(N)=O)C(=O)N1CCC[C@H]1C(=O)N[C@@H](C)C(=O)N[C@@H](Cc1c[nH]c2ccccc12)C(=O)N[C@@H](Cc1ccc(O)cc1)C(=O)N[C@H](C(=O)NCC(=O)N[C@@H](CCCNC(=N)N)C(=O)NCC(=O)N[C@H](C(=O)N[C@@H](CCCNC(=N)N)C(=O)N1CCC[C@H]1C(=O)N[C@H](C(=O)NCC(=O)N[C@@H](CCCNC(=N)N)C(=O)N[C@@H](Cc1ccccc1)C(N)=O)C(C)C)[C@@H](C)CC)[C@@H](C)O)[C@@H](C)CC)[C@@H](C)O)[C@@H](C)O [Analog 18] (Myristoyl-SRAHQHS[Nle]ETRTPDINPAWYTGRGIRPVGRF-NH2) | 3
5 | CCCCCCCCCCCCCCCCCC(=O)N[C@@H](CO)C(=O)N[C@@H](CCCNC(=N)N)C(=O)N[C@@H](C)C(=O)N[C@@H](Cc1c[nH]cn1)C(=O)N[C@@H](CCC(N)=O)C(=O)N[C@@H](Cc1c[nH]cn1)C(=O)N[C@@H](CO)C(=O)N[C@@H](CCCC)C(=O)N[C@@H](CCC(=O)O)C(=O)N[C@H](C(=O)N[C@@H](CCCNC(=N)N)C(=O)N[C@H](C(=O)N1CCC[C@H]1C(=O)N[C@@H](CC(=O)O)C(=O)N[C@H](C(=O)N[C@@H](CC(N)=O)C(=O)N1CCC[C@H]1C(=O)N[C@@H](C)C(=O)N[C@@H](Cc1c[nH]c2ccccc12)C(=O)N[C@@H](Cc1ccc(O)cc1)C(=O)N[C@H](C(=O)NCC(=O)N[C@@H](CCCNC(=N)N)C(=O)NCC(=O)N[C@H](C(=O)N[C@@H](CCCNC(=N)N)C(=O)N1CCC[C@H]1C(=O)N[C@H](C(=O)NCC(=O)N[C@@H](CCCNC(=N)N)C(=O)N[C@@H](Cc1ccccc1)C(N)=O)C(C)C)[C@@H](C)CC)[C@@H](C)O)[C@@H](C)CC)[C@@H](C)O)[C@@H](C)O [Analog 20] (Stearoyl-SRAHQHS[Nle]ETRTPDINPAWYTGRGIRPVGRF-NH2) | 3.5
6 | CCCCCCCCCCCCCCCC(=O)N[C@@H](CO)C(=O)N[C@@H](CCCNC(=N)N)C(=O)N[C@@H](C)C(=O)N[C@@H](Cc1c[nH]cn1)C(=O)N[C@@H](CCC(N)=O)C(=O)N[C@@H](Cc1c[nH]cn1)C(=O)N[C@@H](CO)C(=O)N[C@@H](CCCC)C(=O)N[C@@H](CCC(=O)O)C(=O)N[C@H](C(=O)N[C@@H](CCCNC(=N)N)C(=O)N[C@H](C(=O)N1CCC[C@H]1C(=O)N[C@@H](CC(=O)O)C(=O)N[C@H](C(=O)N[C@@H](CC(N)=O)C(=O)N1CCC[C@H]1C(=O)N[C@@H](C)C(=O)N[C@@H](Cc1c[nH]c2ccccc12)C(=O)N[C@@H](Cc1ccc(O)cc1)C(=O)N[C@H](C(=O)NCC(=O)N[C@@H](CCCNC(=N)N)C(=O)NCC(=O)N[C@H](C(=O)N[C@@H](CCCNC(=N)N)C(=O)N1CCC[C@H]1C(=O)N[C@H](C(=O)NCC(=O)N[C@@H](CCCNC(=N)N)C(=O)N[C@@H](Cc1cccc2ccccc12)C(N)=O)C(C)C)[C@@H](C)CC)[C@@H](C)O)[C@@H](C)CC)[C@@H](C)O)[C@@H](C)O [Analog 23] (Palmitoyl-SRAHQHS[Nle]ETRTPDINPAWYTGRGIRPVGR[1Nal]-NH2) | 13
7 | CCCCCCCCCCCCCC(=O)N[C@@H](CO)C(=O)N[C@@H](CCCNC(=N)N)C(=O)N[C@@H](C)C(=O)N[C@@H](Cc1c[nH]cn1)C(=O)N[C@@H](CCC(N)=O)C(=O)N[C@@H](Cc1c[nH]cn1)C(=O)N[C@@H](CO)C(=O)N[C@@H](CCCC)C(=O)N[C@@H](CCC(=O)O)C(=O)N[C@H](C(=O)N[C@@H](CCCNC(=N)N)C(=O)N[C@H](C(=O)N1CCC[C@H]1C(=O)N[C@@H](CC(=O)O)C(=O)N[C@H](C(=O)N[C@@H](CC(N)=O)C(=O)N1CCC[C@H]1C(=O)N[C@@H](C)C(=O)N[C@@H](Cc1c[nH]c2ccccc12)C(=O)N[C@@H](Cc1ccc(O)cc1)C(=O)N[C@H](C(=O)NCC(=O)N[C@@H](CCCNC(=N)N)C(=O)NCC(=O)N[C@H](C(=O)N[C@@H](CCCNC(=N)N)C(=O)N1CCC[C@H]1C(=O)N[C@H](C(=O)NCC(=O)N[C@@H](CCCNC(=N)N)C(=O)N[C@@H](Cc1ccc(Cl)c(Cl)c1)C(N)=O)C(C)C)[C@@H](C)CC)[C@@H](C)O)[C@@H](C)CC)[C@@H](C)O)[C@@H](C)O [Analog 25] (Myristoyl-SRAHQHS[Nle]ETRTPDINPAWYTGRGIRPVGR[Phe(3,4-Cl2)]-NH2) | 13
8 | CCCCCCCCCCCCCCCC(=O)N[C@@H](CO)C(=O)N[C@@H](CCCNC(=N)N)C(=O)N[C@@H](C)C(=O)N[C@@H](Cc1c[nH]cn1)C(=O)N[C@@H](CCC(N)=O)C(=O)N[C@@H](Cc1c[nH]cn1)C(=O)N[C@@H](CO)C(=O)N[C@@H](CCCC)C(=O)N[C@@H](CCC(=O)O)C(=O)N[C@H](C(=O)N[C@@H](CCCNC(=N)N)C(=O)N[C@H](C(=O)N1CCC[C@H]1C(=O)N[C@@H](CC(=O)O)C(=O)N[C@H](C(=O)N[C@@H](CC(N)=O)C(=O)N1CCC[C@H]1C(=O)N[C@@H](C)C(=O)N[C@@H](Cc1c[nH]c2ccccc12)C(=O)N[C@@H](Cc1ccc(O)cc1)C(=O)N[C@H](C(=O)NCC(=O)N[C@@H](CCCNC(=N)N)C(=O)NCC(=O)N[C@H](C(=O)N[C@@H](CCCNC(=N)N)C(=O)N1CCC[C@H]1C(=O)N[C@H](C(=O)NCC(=O)N[C@@H](CCCNC(=N)N)C(=O)N[C@@H](Cc1ccc(Cl)c(Cl)c1)C(N)=O)C(C)C)[C@@H](C)CC)[C@@H](C)O)[C@@H](C)CC)[C@@H](C)O)[C@@H](C)O [Analog 26] (Palmitoyl-SRAHQHS[Nle]ETRTPDINPAWYTGRGIRPVGR[Phe(3,4-Cl2)]-NH2) | 5
